Measurements from patent US9845297B2, “Antimicrobial compounds and methods of making and using the same” (Melinta Therapeutics, Inc., priority 2009, dated 2017).

test system: Eschericia coli strain ATCC25922; assay: standard microdilution assay to determine minimum inhibitory concentrations (MICs); assay type: cell-based; conditions: Escherichia coli, ATCC25922, Eschericia coli strain ATCC25922, standard microdilution assay; read-out: E. coli ATCC25922 MIC
In short: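 Broth microdilution per CLSI protocols, typically 100 µL final volume, against E. coli ATCC25922. MIC values scored as +/− against a cutoff of 16 micrograms/ml.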

`NCCCNCc1ccc(-c2c[nH]c(NC(=O)Nc3ccc(Cl)cc3F)nc2=O)cc1F` [Compound 436] and `NCCCNCc1ccc(-c2c[nH]c(NC(=O)Nc3ccc(Cl)cc3Cl)nc2=O)cc1F` [Compound 496] cannot be ordered by MIC: under 16 µg/mL for the first, under 16 µg/mL for the second.

Going from `NCCCNCc1ccc(-c2c[nH]c(NC(=O)NCCc3c(Cl)cccc3Cl)nc2=O)cc1F` [Compound 437] to `NCCCNCc1ccc(-c2c[nH]c(NC(=O)NCCc3ccc(Cl)c(Cl)c3)nc2=O)cc1F` [Compound 451], the MIC falls from over 16 µg/mL to under 16 µg/mL.

`NCCCNCc1ccc(-c2c[nH]c(Nc3nc4cc(F)c(F)cc4[nH]3)nc2=O)cc1` [Compound 438] and `NCCCNCc1ccc(-c2c[nH]c(Nc3nc4cc(F)c(F)cc4[nH]3)nc2=O)c(F)c1` [Compound 458] cannot be ordered by MIC: under 16 µg/mL for the first, under 16 µg/mL for the second.

`NCCCNCc1ccc(-c2c[nH]c(Nc3nc4cc(F)c(F)cc4[nH]3)nc2=O)cc1F` [Compound 439] and `NCCCNCc1ccc(-c2c[nH]c(Nc3nc4cc(F)c(F)cc4o3)nc2=O)cc1F` [Compound 471] cannot be ordered by MIC: under 16 µg/mL for the first, under 16 µg/mL for the second.

`O=C(Nc1nc(=O)c(-c2ccc(CNCCC3CC3)cc2)c[nH]1)Nc1ccccc1OC(F)(F)F` [Compound 441] and `O=C(Nc1nc(=O)c(-c2ccc(CNCCc3c[nH]c(=O)[nH]3)cc2)c[nH]1)Nc1ccccc1OC(F)(F)F` [Compound 448] cannot be ordered by MIC: over 16 µg/mL for the first, over 16 µg/mL for the second.

`N#CCCCN(CCCN)Cc1ccc(-c2c[nH]c(NC(=O)Nc3cc(F)c(F)cc3F)nc2=O)cc1` [Compound 443] and `NCCCN(CCCNC(N)=O)Cc1ccc(-c2c[nH]c(NC(=O)Nc3cc(F)c(F)cc3F)nc2=O)cc1` [Compound 444] cannot be ordered by MIC: over 16 µg/mL for the first, over 16 µg/mL for the second.

Compared with `NCCCNCc1ccc(-c2c[nH]c(NC(=O)Nc3cccc4nsnc34)nc2=O)cc1F` [Compound 445], `NCCCNCc1ccc(-c2c[nH]c(NC(=O)Nc3cccc(Cl)c3F)nc2=O)cc1F` [Compound 450] is lower in MIC: over 16 µg/mL for the first, under 16 µg/mL for the second.

`Cc1ncc(-c2cccc(NC(=O)Nc3nc(=O)c(-c4ccc(CNCCCN)c(F)c4)c[nH]3)c2)s1` [Compound 446] and `N#Cc1cccc(NC(=O)Nc2nc(=O)c(-c3ccc(CNCCCN)c(F)c3)c[nH]2)c1` [Compound 486] cannot be ordered by MIC: over 16 µg/mL for the first, over 16 µg/mL for the second.

`NCCCNCc1ccc(-c2c[nH]c(NC(=O)Nc3c(F)c(F)c(F)c(F)c3F)nc2=O)cc1F` [Compound 449] and `NCCCNCc1ccc(-c2c[nH]c(NC(=O)Nc3ccc(F)c(F)c3F)nc2=O)cc1F` [Compound 462] cannot be ordered by MIC: over 16 µg/mL for the first, over 16 µg/mL for the second.

`N#Cc1ccc(NC(=O)Nc2nc(=O)c(-c3ccc(CN(CCCN)CCCNC(=N)N)cc3)c[nH]2)cc1` [Compound 452] and `N=C(N)NCCCN(CCCN)Cc1ccc(-c2c[nH]c(NC(=O)Nc3cc(Cl)cc(Cl)c3)nc2=O)cc1` [Compound 453] cannot be ordered by MIC: under 16 µg/mL for the first, under 16 µg/mL for the second.

`NCCCNCc1ccc(-c2c[nH]c(Nc3nc4cc(F)c(F)cc4o3)nc2=O)cc1` [Compound 454] and `NCCCNCc1ccc(-c2c[nH]c(Nc3nc4cc(F)c(F)cc4o3)nc2=O)c(F)c1` [Compound 467] cannot be ordered by MIC: under 16 µg/mL for the first, under 16 µg/mL for the second.

`NCCCN1CCC(c2c[nH]c(NC(=O)Nc3ccccc3OC(F)(F)F)nc2=O)CC1` [Compound 455] and `NCCCN1CCCC(c2c[nH]c(NC(=O)Nc3ccccc3OC(F)(F)F)nc2=O)CC1` (stereo not drawn) [Compound 516] cannot be ordered by MIC: over 16 µg/mL for the first, over 16 µg/mL for the second.

`NC(N)NCCCN1CCC(c2c[nH]c(NC(=O)Nc3ccccc3OC(F)(F)F)nc2=O)CC1` [Compound 456] and `N=C(N)NCCCN1CCCC(c2c[nH]c(NC(=O)Nc3ccccc3OC(F)(F)F)nc2=O)CC1` (stereo not drawn) [Compound 517] cannot be ordered by MIC: over 16 µg/mL for the first, over 16 µg/mL for the second.

`NCCCNCc1ccc(-c2c[nH]c(NC(=O)Nc3cc([N+](=O)[O-])ccc3Cl)nc2=O)cc1F` [Compound 457] and `NCCCNCc1ccc(-c2c[nH]c(NC(=O)Nc3ccc([N+](=O)[O-])cc3Cl)nc2=O)cc1F` [Compound 494] cannot be ordered by MIC: over 16 µg/mL for the first, over 16 µg/mL for the second.

`NCCCNCc1ccc(-c2c[nH]c(NC(=O)Nc3ccc(Cl)c(C(F)(F)F)c3)nc2=O)cc1F` [Compound 459] and `Cc1ccc(NC(=O)Nc2nc(=O)c(-c3ccc(CNCCCN)c(F)c3)c[nH]2)cc1C(F)(F)F` [Compound 481] cannot be ordered by MIC: over 16 µg/mL for the first, over 16 µg/mL for the second.

`NCCCNCc1ccc(-c2c[nH]c(NC(=O)Nc3c(Cl)cc(Cl)cc3Cl)nc2=O)cc1F` [Compound 461] and `NCCCNCc1ccc(-c2c[nH]c(NC(=O)Nc3c(Cl)cccc3Cl)nc2=O)cc1F` [Compound 479] cannot be ordered by MIC: over 16 µg/mL for the first, over 16 µg/mL for the second.

First: NCCCNCc1ccc(-c2c[nH]c(NC(=O)NCc3ccc(Cl)cc3Cl)nc2=O)cc1F [Compound 463]
Second: NCCCNCc1ccc(-c2c[nH]c(NC(=O)NCc3ccc(Cl)c(Cl)c3)nc2=O)cc1F [Compound 464]
The MIC of the first is lower: under 16 µg/mL for the first, over 16 µg/mL for the second.

`N=C(N)NCCCN(CCCN)Cc1ccc(-c2c[nH]c(NC(=O)NCCc3ccc(F)cc3)nc2=O)cc1` [Compound 465] and `N=C(N)NCCCN(CCCN)Cc1ccc(-c2c[nH]c(NC(=O)NCCc3ccc(Cl)c(Cl)c3)nc2=O)cc1` [Compound 478] cannot be ordered by MIC: over 16 µg/mL for the first, over 16 µg/mL for the second.

`N=C(N)NCCCC(CCCN)Cc1ccc(-c2c[nH]c(NC(=O)NCCc3cccc(Cl)c3)nc2=O)cc1` (stereo not drawn) [Compound 466] and `N=C(N)NCCCN(CCCN)Cc1ccc(-c2c[nH]c(NC(=O)NCCc3ccc(Cl)cc3Cl)nc2=O)cc1` [Compound 476] cannot be ordered by MIC: over 16 µg/mL for the first, over 16 µg/mL for the second.

`NCCCN(CCCN)Cc1ccc(-c2c[nH]c(Nc3nc4cc(F)c(F)cc4[nH]3)nc2=O)cc1` [Compound 468] and `NCCCN(CCCN)Cc1ccc(-c2c[nH]c(Nc3nc4cc(F)c(F)cc4o3)nc2=O)cc1` [Compound 470] cannot be ordered by MIC: under 16 µg/mL for the first, under 16 µg/mL for the second.

`Cc1c(Cl)cc2nc(Nc3nc(=O)c(-c4ccc(CN(CCCN)CCCN)c(F)c4)c[nH]3)oc2c1Cl` [Compound 472] and `NCCCN(CCCN)Cc1ccc(-c2c[nH]c(Nc3ccc(C(F)(F)F)cc3)nc2=O)cc1F` [Compound 489] cannot be ordered by MIC: over 16 µg/mL for the first, over 16 µg/mL for the second.

First: NCCCN(CCCN)Cc1ccc(-c2c[nH]c(Nc3nc4ccccc4[nH]3)nc2=O)cc1 [Compound 473]
Second: NCCCN(CCCNC(N)N)Cc1ccc(-c2c[nH]c(Nc3nc4ccccc4[nH]3)nc2=O)cc1 [Compound 474]
The MIC of the first is higher: over 16 µg/mL for the first, under 16 µg/mL for the second.

`N=C(N)NCCCN(CCCN)Cc1ccc(-c2c[nH]c(NC(=O)NCCc3c(Cl)cccc3Cl)nc2=O)cc1` [Compound 477] and `N=C(N)NCCCN(CCCN)Cc1ccc(-c2c[nH]c(Nc3ccc(C(F)(F)F)cc3)nc2=O)cc1F` [Compound 490] cannot be ordered by MIC: over 16 µg/mL for the first, over 16 µg/mL for the second.

Compared with `NCCCNCc1ccc(-c2c[nH]c(NC(=O)Nc3cc(Cl)ccc3Cl)nc2=O)cc1F` [Compound 480], `NCCCNCc1ccc(-c2c[nH]c(NC(=O)Nc3cc(N)ccc3Cl)nc2=O)cc1F` [Compound 483] is higher in MIC: under 16 µg/mL for the first, over 16 µg/mL for the second.

Going from `NCCCNCc1ccc(-c2c[nH]c(NC(=O)Nc3cc(F)cc(C(F)(F)F)c3)nc2=O)cc1F` [Compound 482] to `NCCCNCc1ccc(-c2c[nH]c(NC(=O)Nc3cc(C(F)(F)F)ccc3Cl)nc2=O)cc1F` [Compound 497], the MIC falls from over 16 µg/mL to under 16 µg/mL.

`N=C(N)NCCCN1CC2(CCN(c3c[nH]c(NC(=O)Nc4ccccc4OC(F)(F)F)nc3=O)CC2)C1` [Compound 484] and `N=C(N)NCCCN1CCCN(c2c[nH]c(NC(=O)Nc3ccccc3OC(F)(F)F)nc2=O)CC1` [Compound 491] cannot be ordered by MIC: over 16 µg/mL for the first, over 16 µg/mL for the second.

`NCCCNCc1ccc(-c2c[nH]c(NC(=O)Nc3cccc([N+](=O)[O-])c3)nc2=O)cc1F` [Compound 485] and `Cc1cc([N+](=O)[O-])ccc1NC(=O)Nc1nc(=O)c(-c2ccc(CNCCCN)c(F)c2)c[nH]1` [Compound 495] cannot be ordered by MIC: over 16 µg/mL for the first, over 16 µg/mL for the second.

`NCCCNCc1ccc(-c2c[nH]c(Nc3ccc(C(F)(F)F)cc3)nc2=O)cc1` [Compound 487] and `NCCCNCc1ccc(-c2c[nH]c(Nc3ccc(C(F)(F)F)cc3)nc2=O)cc1F` [Compound 488] cannot be ordered by MIC: over 16 µg/mL for the first, over 16 µg/mL for the second.

`NCCCN1CCCN(c2c[nH]c(NC(=O)Nc3ccccc3OC(F)(F)F)nc2=O)CC1` [Compound 492] and `NCCCCN1CCN(c2c[nH]c(NC(=O)Nc3ccccc3OC(F)(F)F)nc2=O)CC1` [Compound 522] cannot be ordered by MIC: over 16 µg/mL for the first, over 16 µg/mL for the second.

`NCCCNCc1ccc(-c2c[nH]c(Nc3nc4ccccc4[nH]3)nc2=O)c(F)c1` [Compound 493] and `Cc1cc(CNCCCN)ccc1-c1c[nH]c(NC(=O)Nc2ccccc2OC(F)(F)F)nc1=O` [Compound 500] cannot be ordered by MIC: under 16 µg/mL for the first, under 16 µg/mL for the second.

`NCCCCCN1CCC(c2c[nH]c(Nc3nc4ccccc4[nH]3)nc2=O)CC1` [Compound 499] and `NCCCCN1CCC(c2c[nH]c(Nc3nc4ccccc4[nH]3)nc2=O)CC1` [Compound 509] cannot be ordered by MIC: over 16 µg/mL for the first, over 16 µg/mL for the second.

`N=C(N)NCCCCCN1CCN(c2c[nH]c(NC(=O)Nc3cccc(Cl)c3F)nc2=O)CC1` [Compound 502] and `NCCCCN1CCN(c2c[nH]c(NC(=O)Nc3cccc(Cl)c3F)nc2=O)CC1` [Compound 521] cannot be ordered by MIC: over 16 µg/mL for the first, over 16 µg/mL for the second.

`N=C(N)NCCCCCN1CCC(c2c[nH]c(Nc3nc4ccccc4[nH]3)nc2=O)CC1` [Compound 503] and `N=C(N)NCCCCN1CCC(c2c[nH]c(Nc3nc4ccccc4[nH]3)nc2=O)CC1` [Compound 510] cannot be ordered by MIC: over 16 µg/mL for the first, over 16 µg/mL for the second.

`NCCCCCN1CCN(c2c[nH]c(NC(=O)Nc3cc(F)c(F)cc3F)nc2=O)CC1` [Compound 504] and `NCCCCN1CCN(c2c[nH]c(NC(=O)Nc3cc(F)c(F)cc3F)nc2=O)CC1` [Compound 520] cannot be ordered by MIC: over 16 µg/mL for the first, over 16 µg/mL for the second.

`N=C(N)NCCCCCN1CCN(c2c[nH]c(NC(=O)Nc3cc(F)c(F)cc3F)nc2=O)CC1` [Compound 505] and `N=C(N)NCCCCCN1CCN(c2c[nH]c(NC(=O)Nc3ccccc3OC(F)(F)F)nc2=O)CC1` [Compound 519] cannot be ordered by MIC: over 16 µg/mL for the first, over 16 µg/mL for the second.

`NCCCNCc1ccc(-c2c[nH]c(NC(=O)NCCc3ccccc3OC(F)(F)F)nc2=O)cc1F` [Compound 512] and `N=C(N)NCCCNCc1ccc(-c2c[nH]c(NC(=O)NCCc3ccccc3OC(F)(F)F)nc2=O)cc1F` [Compound 513] cannot be ordered by MIC: over 16 µg/mL for the first, over 16 µg/mL for the second.

`NCCCCCN1CCN(c2c[nH]c(Nc3nc4ccccc4[nH]3)nc2=O)CC1` [Compound 514] and `N=C(N)NCCCCCN1CCN(c2c[nH]c(Nc3nc4ccccc4[nH]3)nc2=O)CC1` [Compound 515] cannot be ordered by MIC: over 16 µg/mL for the first, over 16 µg/mL for the second.

`NCCCCCN1CCN(c2c[nH]c(NC(=O)Nc3ccccc3OC(F)(F)F)nc2=O)CC1` [Compound 518] gave an MIC of over 16 µg/mL.
